Data as given in the supplement of paper PMC10307832.

Columns and labels:
Test in all cases: relative viability (nuclei count vs DMSO), 5 days (fraction); higher = more cells survive
IPA-3 + Luminespib = compound: C1=CC=C2C(=C1)C=CC(=C2SSC3=C(C=CC4=CC=CC=C43)O)O [IPA-3] + CCNC(=O)c1noc(-c2cc(C(C)C)c(O)cc2O)c1-c1ccc(CN2CCOCC2)cc1 [Luminespib] (partner 0.01 µM)
In short: (§1)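 Lung cancer cell lines were seeded in 1536-well plates and dosed by pin tool the next day, with either a single drug or a fixed anchor-drug dose combined with five library-drug doses (not always all listed) spaced in √10 steps. Five days later, one step fixed the cells and stained their nuclei (final 0.05% Triton X-100, 1% formaldehyde, 1 ug/ml Hoechst), and nuclei were counted on 4× images. Relative viability is the nuclei count in treated wells divided by the count in vehicle wells, and each value is the median of duplicate plates.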

IPA-3 + Lapatinib = compound: C1=CC=C2C(=C1)C=CC(=C2SSC3=C(C=CC4=CC=CC=C43)O)O [IPA-3] + CS(=O)(=O)CCNCc1ccc(-c2ccc3ncnc(Nc4ccc(OCc5cccc(F)c5)c(Cl)c4)c3c2)o1 [Lapatinib] (partner 2 µM)
In short: as §1

IPA-3 + AZD7762 = compound: C1=CC=C2C(=C1)C=CC(=C2SSC3=C(C=CC4=CC=CC=C43)O)O [IPA-3] + NC(=O)Nc1cc(-c2cccc(F)c2)sc1C(=O)N[C@H]1CCCNC1 [AZD7762] (partner 0.2 µM)
In short: as §1

RAF265 + Pictilisib = compound: Cn1c(Nc2ccc(C(F)(F)F)cc2)nc2cc(Oc3ccnc(-c4ncc(C(F)(F)F)[nH]4)c3)ccc21 [RAF265] + CS(=O)(=O)N1CCN(Cc2cc3nc(-c4cccc5[nH]ncc45)nc(N4CCOCC4)c3s2)CC1 [Pictilisib] (partner 1 µM)
In short: as §1

Cell Line | relative viability (IPA-3 + Luminespib; first compound 0.2 µM) | relative viability (IPA-3 + Luminespib; first compound 0.6325 µM) | relative viability (IPA-3 + Luminespib; first compound 2 µM) | relative viability (IPA-3 + Luminespib; first compound 6.325 µM) | relative viability (IPA-3 + Luminespib; first compound 20 µM) | relative viability (IPA-3 + Lapatinib; first compound 0.2 µM) | relative viability (IPA-3 + Lapatinib; first compound 0.6325 µM) | relative viability (IPA-3 + Lapatinib; first compound 2 µM) | relative viability (IPA-3 + Lapatinib; first compound 6.325 µM) | relative viability (IPA-3 + Lapatinib; first compound 20 µM) | relative viability (IPA-3 + AZD7762; first compound 0.2 µM) | relative viability (IPA-3 + AZD7762; first compound 0.6325 µM) | relative viability (IPA-3 + AZD7762; first compound 2 µM) | relative viability (IPA-3 + AZD7762; first compound 6.325 µM) | relative viability (IPA-3 + AZD7762; first compound 20 µM) | relative viability (RAF265 + Pictilisib; first compound 0.01 µM) | relative viability (RAF265 + Pictilisib; first compound 0.03162 µM) | relative viability (RAF265 + Pictilisib; first compound 0.1 µM) | relative viability (RAF265 + Pictilisib; first compound 0.3162 µM) | relative viability (RAF265 + Pictilisib; first compound 1 µM)
NCI-H1993 | 1.05 | 1.32 | 0.852 | 0.478 | 0.844 | 0.829 | 0.742 | 0.767 | 0.909 | 0.738 | 0.971 | 0.922 | 0.85 | 0.738 | 0.726 | 0.888 | 0.805 | 0.934 | 0.824 | 0.763
NCI-H2405 | 0.722 | 0.599 | 0.688 | 0.666 | 0.762 | 1.15 | 1 | 0.921 | 1.17 | 1.16 | 0.89 | 0.806 | 0.847 | 0.771 | 0.73 | 0.529 | 0.473 | 0.397 | 0.368 | 0.231
NCI-H2126 | 0.998 | 0.819 | 0.921 | 0.902 | 1.1 | 0.792 | 0.76 | 0.771 | 0.75 | 0.792 | 1.05 | 0.974 | 1 | 0.958 | 1.05 | 0.5 | 0.491 | 0.491 | 0.405 | 0.415
NCI-H1944 | 0.914 | 0.651 | 0.891 | 0.827 | 0.937 | 0.803 | 0.763 | 0.814 | 1.04 | 0.791 | 0.766 | 0.492 | 0.536 | 0.718 | 0.541 | 0.339 | 0.343 | 0.334 | 0.293 | 0.258
NCI-H358 | 0.535 | 0.313 | 0.265 | 0.385 | 0.255 | 0.532 | 0.47 | 0.445 | 0.51 | 0.413 | 0.618 | 0.566 | 0.5 | 0.508 | 0.48 | 0.398 | 0.298 | 0.28 | 0.261 | 0.249
NCI-H1734 | 0.191 | 0.224 | 0.185 | 0.216 | 0.194 | 1.19 | 0.969 | 1.12 | 0.982 | 0.892 | 0.637 | 0.508 | 0.624 | 0.571 | 0.496 | 0.479 | 0.334 | 0.438 | 0.276 | 0.228
A-427 | 1.02 | 0.855 | 0.999 | 0.803 | 1.02 | 1.17 | 0.997 | 0.981 | 1.09 | 1.2 | 0.902 | 0.701 | 0.731 | 0.706 | 0.772 | 0.738 | 0.531 | 0.797 | 0.395 | 0.15
RERF-LC-KJ | 1.46 | 1.27 | 1.29 | 1.39 | 1.14 | 1 | 0.828 | 0.764 | 0.801 | 0.897 | 1.08 | 0.955 | 1.01 | 0.921 | 1.15 | 0.49 | 0.236 | 0.545 | 0.42 | 0.23
